From patent publication US20030224390A1, “Method of identifying conformation-sensitive binding peptides and uses thereof” (Karo Bio AB, priority 2000, published 2003)

Assays:
[1] = biological target: T1, androgen receptor (Homo sapiens, UniProt P10275); assay type: cell-based; parameters: expressed in transfected cells; conditions: for luciferase normalized to β-galactosidase, DHT / luciferase normalized to β-galactosidase, MPA / luciferase normalized to β-galactosidase, RU486 / luciferase normalized to β-galactosidase, no compound: mammalian two-hybrid, Huh-7 cells; for luciferase normalized to β-galactosidase, DHT: ligand DHT; for luciferase normalized to β-galactosidase, MPA: ligand MPA; for luciferase normalized to β-galactosidase, RU486: ligand RU486
T1 sequence (P10275 1-920): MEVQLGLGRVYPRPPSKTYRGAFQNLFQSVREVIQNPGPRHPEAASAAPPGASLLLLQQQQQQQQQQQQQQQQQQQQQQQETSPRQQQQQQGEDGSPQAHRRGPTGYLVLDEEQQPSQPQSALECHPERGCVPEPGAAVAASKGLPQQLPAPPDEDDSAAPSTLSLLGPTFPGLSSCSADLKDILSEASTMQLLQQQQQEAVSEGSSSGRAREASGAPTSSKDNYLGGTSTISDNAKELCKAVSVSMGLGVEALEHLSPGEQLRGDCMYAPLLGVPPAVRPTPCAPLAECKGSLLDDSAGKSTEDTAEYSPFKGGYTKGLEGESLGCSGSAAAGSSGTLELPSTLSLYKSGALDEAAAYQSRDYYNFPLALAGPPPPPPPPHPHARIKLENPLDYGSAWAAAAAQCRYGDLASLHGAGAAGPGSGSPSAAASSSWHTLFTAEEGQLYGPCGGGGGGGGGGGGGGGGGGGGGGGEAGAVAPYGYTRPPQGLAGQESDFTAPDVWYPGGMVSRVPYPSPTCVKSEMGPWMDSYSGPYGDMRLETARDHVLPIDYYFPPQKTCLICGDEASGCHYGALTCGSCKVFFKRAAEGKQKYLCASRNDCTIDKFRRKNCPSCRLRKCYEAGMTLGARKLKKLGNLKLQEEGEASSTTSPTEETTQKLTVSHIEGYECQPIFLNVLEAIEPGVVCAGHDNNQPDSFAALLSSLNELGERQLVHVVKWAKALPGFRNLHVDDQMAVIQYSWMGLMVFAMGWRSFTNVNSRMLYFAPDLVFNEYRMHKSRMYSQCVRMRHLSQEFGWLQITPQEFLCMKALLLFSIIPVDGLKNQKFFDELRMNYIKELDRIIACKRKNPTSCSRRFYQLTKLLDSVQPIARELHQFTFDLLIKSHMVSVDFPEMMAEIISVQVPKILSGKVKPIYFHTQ
From the text: We used a mammalian two-hybrid system to determine specificities of the AR-binding peptides previously identified, through screening of the aforementioned yeast library, as ligand-dependent in their binding activity. Ligand was provided to the cells so the interaction could be observed. The human hepatoma cell line, Huh-7, was used as the recipient of two-hybrid vectors, pM and pVP16 (Clontech) (FIGS. 6A and 6B), containing fusions with peptide and AR, respectively. According to Clontech literature, the Clontech vectors pM and VP16 generate fusions of protein X with the GAL4 DNA-BD and fusions of protein Y with the VP16AD, in the Mammalian MM Two-Hybrid Assay Kit (#K1602-1). (Note: pM and VP16 contain unique cloning sites in the same order and reading frame as the DNA-BD and AD, respectively, vectors in the yeast […] Two-Hybrid Systems.) A third vector, pG5CAT, provides a CAT reporter gene under the control of a GAL4-responsive element and minimal promoter of the adenovirus E1b. The three vectors are cotransfected into any suitable mammalian host cell line by standard methods. The interaction between proteins X and Y is then assayed by measuring CAT gene expression by any standard method. In the absence of activation (i.e., no protein-protein interaction), the minimal E1b promoter will not express significant levels of CAT.
Briefly, cells are seeded in a 24-well culture plate to a density of 50-80% confluence in phenol red-free media containing charcoal-dextran stripped fetal bovine serum (10%). Following incubation overnight, cells are transfected with plasmids pM-peptide, pVP16-AR, pCMV-b-gal, and p5XGAL-Luc3 DNAs using lipofectamine 2000 (LifeTech) according to the manufacturer's protocol. Transfections are allowed to proceed for 6 hours and the transfection media is aspirated and replaced with recovery media for 18 hours. Following the recovery period, cells are treated with compound for 24 hours prior to cell harvesting. Cells are washed with PBS and then lysed using the lysis buffer from the Galacto-Light Plus β-galactosidase assay kit (Tropix). Assays for luciferase and β-galactosidase were performed as described by the manufacturer. Peptide/AR interactions are described in terms of the luciferase activity normalized for transfection efficiency using β-galactosidase activity (see FIG. 4A). Two types of useful information arose from these methods: 1) we generated a panel of useful peptide probes to analyze the conformational state of AR, and 2) we “fingerprinted” AR modulators with respect to AR conformation (FIG. 4B). […] FIG. 4B is the converse of 4A. It compares the ability of six ligands (DHT, MPA, CYP, RU486, FLUT and DHEAs to interact with AR in the presence of each of four peptides (D30, 5G11, B8H3 and […]). Thus, it is a “fingerprint” of each of the six ligands using a four peptide panel. (Note that “1269” and D30” refer to the same peptide.)

[2] = biological target: T1, androgen receptor; test: Yeast two-hybrid screening of unbiased X15 peptide library, ligand induced β-galactosidase activity (FIG. 3, Table 503); assay type: cell-based; parameters: expressed in transfected cells; host or cells: Saccharomyces cerevisiae PJ69-4α; ligand induced β-galactosidase activity, No Lig / ligand induced β-galactosidase activity, DHT / ligand induced β-galactosidase activity, CPA / ligand induced β-galactosidase activity, RU / ligand induced β-galactosidase activity, Test / ligand induced β-galactosidase activity, MPA: unit not given here
From the text: Our library contained predominantly 15 random amino acid residues/peptide in order to identify motifs that might interact with nuclear receptor domains. If ligand is provided to the cells, one can screen for peptides that interact with the ligand-bound receptor. […] Included at the ends of the oligonucleotide were the synthetic restriction endonuclease cleavage sites, EcoRI or Mfe I (5′ end) and Sal I (3′ end). Oligonucleotides were annealed, then cleaved with excess restriction endonuclease and purified on agarose gels. The purified set of oligonucleotides was subcloned as an in-frame carboxy-terminal fusion to a Gal4 DNA binding domain (plasmid vector pMA424 derivative). […] The transformation mix was divided and grown on plates of selective media containing ligand and 25 mM 3-aminotriazole at 30° C. until colonies appeared in 3-7 days. […] Dihydrotestosterone (DHT) and medroxyprogesterone (MPA) were added to the media at 100 nM to identify peptides that interact with the receptor in the presence of ligand. After colonies appeared they were picked and dispersed into individual wells of a 96-well plate containing rich media (YPD).
To determine ligand dependence, two microliter aliquots were removed from the cell suspension, and arrayed and spotted onto each of two rectangular agar plates, one with 100 nM ligand and one without ligand. Growth was monitored daily.
A secondary test of ligand dependent activation was performed using the integrated GAL4-driven lacZ gene. Cell suspensions of the initial positive clones were diluted 20-fold into 20 microliters of rich media in a microplate and grown overnight at 30° C. in the presence and absence of ligand. Microplates were centrifuged for 5 minutes at 3000 rpm in a swinging table top centrifuge to pellet the yeast cells, and the overlying media was aspirated. […] An OD650 density determination was made to normalize the β-galactosidase activity. β-galactosidase activity was monitored following the addition of buffer containing chlorophenol red-β-galactopyranoside (CPRG) (Boehringer Mannheim) substrate at a final concentration of 0.5 mM. […] The maximum slope value of this measurement was normalized to cell density from the initial OD650 value, and the relative ligand dependence of β-galactosidase was determined by comparing the values plus and minus ligand.
In FIG. 3, all of these ligands were tested. The plasmids from true positives were extracted using standard yeast extraction protocols and re-transformed to verify the positive phenotype.

[3] = biological target: ERβ (Homo sapiens, UniProt Q92731); test: Binding of the peptide probes to ERβ in the presence of modulators (Table 15b)
Sequence of ERβ (Q92731 whole entry, species assumed): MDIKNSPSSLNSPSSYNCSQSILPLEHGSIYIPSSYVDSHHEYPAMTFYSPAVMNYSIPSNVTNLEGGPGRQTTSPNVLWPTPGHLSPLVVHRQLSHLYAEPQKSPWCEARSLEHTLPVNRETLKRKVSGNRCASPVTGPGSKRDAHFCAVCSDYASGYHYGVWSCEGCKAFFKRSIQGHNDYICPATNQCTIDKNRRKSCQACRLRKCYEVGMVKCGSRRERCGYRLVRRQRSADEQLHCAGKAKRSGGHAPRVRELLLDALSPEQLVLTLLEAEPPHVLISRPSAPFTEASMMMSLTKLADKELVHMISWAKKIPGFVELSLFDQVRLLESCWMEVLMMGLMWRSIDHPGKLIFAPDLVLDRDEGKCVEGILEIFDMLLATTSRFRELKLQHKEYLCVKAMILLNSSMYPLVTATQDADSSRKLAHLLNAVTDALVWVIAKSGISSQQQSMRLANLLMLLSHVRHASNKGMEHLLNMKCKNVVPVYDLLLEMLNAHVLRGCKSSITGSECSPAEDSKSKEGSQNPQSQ

| Compound | luciferase normalized to β-galactosidase, CYP. [1] | luciferase normalized to β-galactosidase, DHT [1] | luciferase normalized to β-galactosidase, MPA [1] | luciferase normalized to β-galactosidase, RU486 [1] | luciferase normalized to β-galactosidase, no compound [1] | ligand induced β-galactosidase activity, CPA ([2]; yeast two-hybrid) | ligand induced β-galactosidase activity, DHT ([2]; yeast two-hybrid) | ligand induced β-galactosidase activity, MPA ([2]; yeast two-hybrid, ligand MPA) | ligand induced β-galactosidase activity, RU ([2]; yeast two-hybrid) | ligand induced β-galactosidase activity, Test ([2]; yeast two-hybrid, ligand Test) | ligand induced β-galactosidase activity, No Lig ([2]; yeast two-hybrid) | Fold induction ([2]; untitled table before Table 503, values match DHT / No Lig of Table 503) | Equiv. (equivalency), peptide probe α/βIII on ERβ ([3]; probe α/βIII) | Equiv. (equivalency), peptide probe α/βIV on ERβ ([3]; probe α/βIV) | Equiv. (equivalency), peptide probe α/βV on ERβ ([3]; probe α/βV) | Equiv. (equivalency), peptide probe βI on ERβ ([3]; probe βI) | Equiv. (equivalency), peptide probe βIII on ERβ ([3]; probe βIII) |
| --- | --- | --- | --- | --- | --- | --- | --- | --- | --- | --- | --- | --- | --- | --- | --- | --- | --- |
| HPTHSSRLWELLMEATPTM [D30] | 11.18 | 12.59 | 15.62 | 0.8461 | 0.03854 |  |  |  |  |  |  |  |  |  |  |  |  |
| EFRFPFHEMVREWESMGLERVRYAEP [M4D1] |  |  |  |  |  | −0.03955 | 0.3948 | 1.698 | 0.1 | 0.1337 | 0 |  |  |  |  |  |  |
| EFRSSVFEQMYLCTGGSLDLQPS* [B5G11] | 4.462 | 15.84 | 8.029 | 0.1051 | 0.05028 | 0.9726 | 3.964 |  | 0.9 |  | 0.6382 |  |  |  |  |  |  |
| EFVNWDAVVPWSELVALLDLOPS [B8A10] |  |  |  |  |  | 0.3955 | 0.6163 |  | 0.4 |  | 0.8753 | 1 |  |  |  |  |  |
| O=C(c1ccc(OCCN2CCCCC2)cc1)c1c(-c2ccc(O)cc2)sc2cc(O)ccc12 [Raloxifene] |  |  |  |  |  |  |  |  |  |  |  |  | 77% | 0% | 0% | −53% | −71% |
